Results reported in US20200181117A1, “SUBSTITUTED 3-HETEROARYLOXY-1H-PYRAZOLES AND SALTS THEREOF AND THEIR USE AS HERBICIDAL ACTIVE SUBSTANCES” (BAYER CROPSCIENCE AKTIENGESELLSCHAFT, priority 2017, published 2020).

What was measured:
Assay type in all cases: in vivo
[1] = test system: Abutilon theophrasti; experiment: Pre-emergence herbicidal action; conditions: 1280 g/ha, scored visually after about 3 weeks vs untreated controls
Procedure, shortened: (§1)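 Covered seeds received aqueous suspension or emulsion of formulated compound at 1280 g/ha with 0.5% additive and 600 l/ha water. Pots grew under good greenhouse conditions, and after approximately 3 weeks the effect was estimated visually as a percentage, 100% denoting plants that died.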

[2] = test system: Alopecurus myosuroides; experiment: Pre-emergence herbicidal action; conditions: 1280 g/ha, scored visually after about 3 weeks vs untreated controls
Procedure, shortened: as §1

[3] = test system: Stellaria media; experiment: Pre-emergence herbicidal action; conditions: 1280 g/ha, scored visually after about 3 weeks vs untreated controls
Procedure, shortened: as §1

[4] = test system: Hordeum murinum; experiment: Pre-emergence herbicidal action; conditions: 1280 g/ha, scored visually after about 3 weeks vs untreated controls
Procedure, shortened: as §1

[5] = test system: Echinochloa crus-galli; experiment: Pre-emergence herbicidal action; conditions: 1280 g/ha, scored visually after about 3 weeks vs untreated controls
Procedure, shortened: as §1

[6] = test system: Amaranthus retroflexus; experiment: Pre-emergence herbicidal action; conditions: 1280 g/ha, scored visually after about 3 weeks vs untreated controls
Procedure, shortened: as §1

[7] = test system: Setaria viridis; experiment: Pre-emergence herbicidal action; conditions: 1280 g/ha, scored visually after about 3 weeks vs untreated controls
Procedure, shortened: as §1

[8] = test system: Avena fatua; experiment: Pre-emergence herbicidal action; conditions: 1280 g/ha, scored visually after about 3 weeks vs untreated controls
Procedure, shortened: as §1

[9] = test system: Pharbitis purpurea; experiment: Pre-emergence herbicidal action; conditions: 1280 g/ha, scored visually after about 3 weeks vs untreated controls
Procedure, shortened: as §1

[10] = test system: Matricaria inodora; experiment: Pre-emergence herbicidal action; conditions: 1280 g/ha, scored visually after about 3 weeks vs untreated controls
Procedure, shortened: as §1

[11] = test system: Veronica persica; experiment: Pre-emergence herbicidal action; conditions: 1280 g/ha, scored visually after about 3 weeks vs untreated controls
Procedure, shortened: as §1

[12] = test system: Lolium rigidum; experiment: Pre-emergence herbicidal action; conditions: 1280 g/ha, scored visually after about 3 weeks vs untreated controls
Procedure, shortened: as §1

[13] = test system: Viola tricolor; experiment: Pre-emergence herbicidal action; conditions: 1280 g/ha, scored visually after about 3 weeks vs untreated controls
Procedure, shortened: as §1

[14] = test system: Abutilon theophrasti; experiment: Post-emergence herbicidal action; conditions: 1280 g/ha, rated visually after about 3 weeks vs untreated controls
Procedure, shortened: (§2)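 Greenhouse weeds in sandy loam sprayed at one-leaf stage (2-3 weeks after sowing) with WP or EC formulations plus 0.5% additive, 600 l/ha water, 1280 g/ha. Activity scored visually about 3 weeks later versus untreated controls (100% = dead, 0% = like control).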

[15] = test system: Alopecurus myosuroides; experiment: Post-emergence herbicidal action; conditions: 1280 g/ha, rated visually after about 3 weeks vs untreated controls
Procedure, shortened: as §2

[16] = test system: Stellaria media; experiment: Post-emergence herbicidal action; conditions: 1280 g/ha, rated visually after about 3 weeks vs untreated controls
Procedure, shortened: as §2

[17] = test system: Polygonum convolvulus; experiment: Post-emergence herbicidal action; conditions: 1280 g/ha, rated visually after about 3 weeks vs untreated controls
Procedure, shortened: as §2

[18] = test system: Echinochloa crus-galli; experiment: Post-emergence herbicidal action; conditions: 1280 g/ha, rated visually after about 3 weeks vs untreated controls
Procedure, shortened: as §2

[19] = test system: Amaranthus retroflexus; experiment: Post-emergence herbicidal action; conditions: 1280 g/ha, rated visually after about 3 weeks vs untreated controls
Procedure, shortened: as §2

[20] = test system: Setaria viridis; experiment: Post-emergence herbicidal action; conditions: 1280 g/ha, rated visually after about 3 weeks vs untreated controls
Procedure, shortened: as §2

[21] = test system: Avena fatua; experiment: Post-emergence herbicidal action; conditions: 1280 g/ha, rated visually after about 3 weeks vs untreated controls
Procedure, shortened: as §2

[22] = test system: Lolium rigidum; experiment: Post-emergence herbicidal action; conditions: 1280 g/ha, rated visually after about 3 weeks vs untreated controls
Procedure, shortened: as §2

[23] = test system: Viola tricolor; experiment: Post-emergence herbicidal action; conditions: 1280 g/ha, rated visually after about 3 weeks vs untreated controls
Procedure, shortened: as §2

[24] = test system: Polygonum convolvulus; experiment: Pre-emergence herbicidal action; conditions: 1280 g/ha, scored visually after about 3 weeks vs untreated controls
Procedure, shortened: as §1

[25] = test system: Hordeum murinum; experiment: Post-emergence herbicidal action; conditions: 1280 g/ha, rated visually after about 3 weeks vs untreated controls
Procedure, shortened: as §2

[26] = test system: Pharbitis purpurea; experiment: Post-emergence herbicidal action; conditions: 1280 g/ha, rated visually after about 3 weeks vs untreated controls
Procedure, shortened: as §2

[27] = test system: Ipomoea purpurea; experiment: Post-emergence herbicidal action; conditions: 1280 g/ha, rated visually after about 3 weeks vs untreated controls
Procedure, shortened: as §2

[28] = test system: Veronica persica; experiment: Post-emergence herbicidal action; conditions: 1280 g/ha, rated visually after about 3 weeks vs untreated controls
Procedure, shortened: as §2

Row | Structure (SMILES) | herbicidal activity on Abutilon theophrasti [1] | herbicidal activity on Alopecurus myosuroides [2] | herbicidal activity on Stellaria media [3] | herbicidal activity on Hordeum murinum [4] | herbicidal activity on Echinochloa crus-galli [5] | herbicidal activity on Amaranthus retroflexus [6] | herbicidal activity on Setaria viridis [7] | herbicidal activity on Avena fatua [8] | herbicidal activity on Matricaria inodora [10] | herbicidal activity on Veronica persica [11] | herbicidal activity on Lolium rigidum [12] | herbicidal activity on Viola tricolor [13] | herbicidal activity on Abutilon theophrasti [14] | herbicidal activity on Alopecurus myosuroides [15] | herbicidal activity on Polygonum convolvulus [17] | herbicidal activity on Echinochloa crus-galli [18] | herbicidal activity on Amaranthus retroflexus [19] | herbicidal activity on Setaria viridis [20] | herbicidal activity on Viola tricolor [23] | herbicidal activity on Polygonum convolvulus [24] | further results
1 | Cc1c(Sc2ccc(F)c(F)c2)c(Oc2ncccn2)nn1C [Example I-036] | 100% | 90% | 100% | 100% | 100% | 90% | 100% | 90% | 90% | 100% | 100% | 100% | 90% | 90% | 100% | 90% | 100% | 90% | 100% |  | herbicidal activity on Pharbitis purpurea [9]: 80%; herbicidal activity on Stellaria media [16]: 90%; herbicidal activity on Avena fatua [21]: 100%; herbicidal activity on Lolium rigidum [22]: 90%
2 | Cc1c(Sc2cccc(Cl)c2)c(Oc2ncccn2)nn1C [Example I-069] | 100% | 100% | 100% | 100% | 100% | 100% | 100% | 100% | 100% | 100% | 100% | 100% | 80% | 100% | 100% | 80% | 100% | 80% | 100% | 100% | herbicidal activity on Hordeum murinum [25]: 80%
3 | Cc1c(Sc2cccc(F)c2)c(Oc2ncc(F)cn2)nn1C [Example I-158] | 100% | 100% | 100% | 100% | 100% | 100% | 100% | 100% | 100% | 100% | 100% | 100% | 90% | 100% | 100% | 100% | 100% | 100% | 100% | 100% | herbicidal activity on Stellaria media [16]: 90%; herbicidal activity on Avena fatua [21]: 80%; herbicidal activity on Pharbitis purpurea [26]: 80%; herbicidal activity on Lolium rigidum [22]: 100%
4 | Cn1cc(Sc2ccc(F)cc2)c(Oc2ncc(Cl)cn2)n1 [Example I-095] | 100% | 100% | 100% | 100% | 100% | 100% | 100% | 100% | 100% | 100% | 100% | 100% |  |  |  | 80% | 100% |  | 100% | 90% | herbicidal activity on Ipomoea purpurea [27]: 80%; herbicidal activity on Pharbitis purpurea [26]: 80%
5 | Cc1c(Sc2ccc(F)c(F)c2)c(Oc2cnccn2)nn1C [Example I-141] | 100% | 90% | 90% | 80% | 100% | 100% | 100% | 80% | 100% | 100% | 90% | 100% | 90% | 80% | 100% | 100% | 100% | 90% | 90% | 100% | herbicidal activity on Stellaria media [16]: 100%; herbicidal activity on Avena fatua [21]: 80%; herbicidal activity on Pharbitis purpurea [26]: 80%; herbicidal activity on Veronica persica [28]: 100%
6 | COc1cnc(Oc2nn(C)c(C)c2Sc2ccc(F)cc2)nc1 [Example I-089] | 100% | 90% | 100% | 90% | 100% | 100% | 100% | 80% | 100% | 100% | 90% | 100% |  | 90% | 90% |  |  | 80% |  | 90% | herbicidal activity on Avena fatua [21]: 80%
